Patent US20060128726A1, “Process for preparing novel crystalline forms of (2S)-1-[[(7R)-7-(3,4-dichlorophenyl)-4,7-dihydro-5-methylpyrazolo[1,5]pyrimidine-6-yl]carbonyl]-2-(4-fluorophenyl)pyrrolidine, novel stable forms produced therein and formulations” (priority 2004, published 2006)
In brackets after ≈: the same amount, converted by molar mass. Values belong to the compound of their own block, whether it stands above or below them.

Legend:
[1] = slurry conversion of polymorph mixtures (relative thermodynamic stability); type: physicochemical; conditions: mixtures of H2-1 and H2-2 in aqueous ethanol slurries; conversion observed at 5, 25, 50 and 80° C.
aqueous solubility = type: physicochemical; conditions: water; depending on crystalline form
[2] = solid-state stability (light, heat, physical and chemical); type: physicochemical
[3] = target: ultrarapidly activating, sustained potassium current (IKur, also known as Kv1.5) (Homo sapiens, UniProt P22460); conditions: cited from earlier work
Sequence of ultrarapidly activating, sustained potassium current (IKur, also known as Kv1.5) (P22460 whole entry): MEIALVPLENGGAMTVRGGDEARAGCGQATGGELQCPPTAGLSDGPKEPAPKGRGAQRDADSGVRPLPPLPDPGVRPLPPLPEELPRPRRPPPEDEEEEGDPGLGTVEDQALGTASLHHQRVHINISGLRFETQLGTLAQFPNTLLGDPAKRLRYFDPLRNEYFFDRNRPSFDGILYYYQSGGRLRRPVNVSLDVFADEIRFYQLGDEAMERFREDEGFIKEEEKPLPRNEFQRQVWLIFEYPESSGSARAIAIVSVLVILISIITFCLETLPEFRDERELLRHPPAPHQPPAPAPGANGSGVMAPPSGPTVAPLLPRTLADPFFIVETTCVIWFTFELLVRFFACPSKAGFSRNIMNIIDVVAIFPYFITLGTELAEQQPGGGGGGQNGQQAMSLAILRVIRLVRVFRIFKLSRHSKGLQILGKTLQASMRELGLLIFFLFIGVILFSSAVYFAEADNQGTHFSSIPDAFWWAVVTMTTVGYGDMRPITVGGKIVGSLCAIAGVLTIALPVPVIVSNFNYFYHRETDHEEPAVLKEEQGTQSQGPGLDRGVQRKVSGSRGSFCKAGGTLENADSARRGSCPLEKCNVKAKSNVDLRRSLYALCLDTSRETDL

hygroscopicity = type: physicochemical
oral bioavailability = conditions: in vivo

SMILES: CC1=C(C(=O)N2CCC[C@H]2c2ccc(F)cc2)[C@@H](c2ccc(Cl)c(Cl)c2)n2nccc2N1 [H2-2 dihydrate]
relative thermodynamic stability of polymorphs [1]: thermodynamically more stable than the H2-1 dihydrate

solubility (aqueous solubility): 2 to 4 µg/mL (≈ 4.24 to 8.49 µM)
sensitivity to light and heat ([2]; amorphous form and crystalline forms): sensitive to light and heat
SMILES: CC1=C(C(=O)N2CCC[C@H]2c2ccc(F)cc2)[C@@H](c2ccc(Cl)c(Cl)c2)n2nccc2N1 [IKur compound, (2S)-1-[[(7R)-(3,4-dichlorophenyl)-4,7-dihydro-5-methylpyrazolo[1,5-]pyrimidine-6-yl]carbonyl]-2-(4-fluorophenyl)pyrrolidine]
blocking of IKur (Kv1.5) [3]: selective blocker

solid-state stability (physical and chemical) [2]: satisfactory solid-state stability
hygroscopicity (hygroscopicity): low hygroscopicity
oral bioavailability (oral bioavailability): satisfactory oral bioavailability
SMILES: CC1=C(C(=O)N2CCC[C@H]2c2ccc(F)cc2)[C@@H](c2ccc(Cl)c(Cl)c2)n2nccc2N1 [N-3 anhydrate]
